Results on eight compounds are retold here after patent publication US4981861A, “Tricyclic imidazole derivatives” (Hoffmann-La Roche Inc., priority 1984, dated 1991).

The subject of data set [1] is lesions of the stomach. The data set is described as follows: anti-ulcer activity (protection from indomethacin-induced lesions of the stomach, oral). Format: in vivo, male rats. Conditions: Rattus norvegicus, rats, p.o. 1 hour before and 2 hours after 20 mg/kg indomethacin p.o., dosage protecting 50% of the animals, read-out: Anti-ulcer ED 50. The protocol: The experimental procedure described hereinafter was used to determine the anti-ulcer activity:
Groups each comprising 8 male rats with a body weight of 130-150 g are used for each dosage of a test substance. Before the beginning of the experiment the animals receive no food for 24 hours, but receive water ad libitum. Various dosages of the substances to be tested (suspended in 0.5% tragacanth) or the vehicle alone (controls) are administered twice orally, namely 1 hour before and 2 hours after the oral administration of 20 mg/kg of indomethacin. In the control animals this dosage of indomethacin leads to lesions of the stomach within 5 hours. The animals are sacrificed 6 hours after the first administration of the substance under investigation (or of the vehicle alone). The rats which remain protected from the occurrence of macroscopically visible lesions to the mucous membrane of the stomach are counted. The ED is that dosage of a test substance at which 50% of the animals are protected from the occurence of such lesions.

The test system of data set [2] is gastric acid secretion. The data set is described as follows: gastric acid secretion-inhibiting activity (4-methylhistamine-stimulated, Heidenhain pouch, oral). The data set is classed as in vivo. Conditions: Canis lupus familiaris, conscious beagle hounds, p.o., 50% inhibition of gastric acid production caused by i.v. 4-methylhistamine, read-out: Gastric acid secretion-inhibition ED 50. The protocol: The experimental procedure described hereinafter was used to determine the gastric acid secretion-inhibiting activity:
A part of the stomach fundus of female and male beagle hounds is separated from the remainder of the stomach in the form a pouch of the Heidenhain type (modification of the method described by Rudick et al. in J. Surgical Research 7, 383-398 (1967)). In the pouch there is fitted a steel cannula which is conducted externally through the abdominal wall. Before each experiment the animals receive no food for 18 hours, but receive water ad libitum. They are conscious and standing during the experiment and their gastric acid secretion is stimulated by the intravenous infusion of 4-methylhistamine, a selective agonist of the histamine H2 -receptors. The gastric acid production is determined in 15 minute fractions of the stomach pouch juice. As soon as the gastric acid production has a constant value, the substances to be tested are administered orally as a dry powder filled into gelatine capsules. The ED50 is that dosage of a test substance which brings about a 50% inhibition of the gastric acid production caused by 4-methylhistamine in the treated animals in comparison to the controls.

A short description of data set [3]: acute toxicity (single oral administration to mice). Conditions: mouse, in vivo, read-out: Toxicity LD 50. An excerpt:
In the following Table there are given for a series of compounds of formula I the results of the testing with respect to their anti-ulcer activity and to their gastric secretion-inhibiting activity. Moreover, this Table contains data concerning the acute toxicity (LD50 in the case of single oral administration to mice).

For `COc1c(C)cnc(CSc2nc3cc4c(cc3[nH]2)C(C)(C)C(=O)C4(C)C)c1C` [A, 5,7-dihydro-2-[[(4-methoxy-3,5-dimethyl-2-pyridyl)-methyl]thio]-5,5,7,7-tetramethylindeno[5,6-d]imidazol-6(lH)-one], the ED50 in data set [1] came out at 2 mg/kg; in data set [2], 4.88 mg/kg. Besides, the LD50 in data set [3] is more than 5000 mg/kg.
For `COc1c(C)cnc(C[S+]([O-])c2nc3cc4c(cc3[nH]2)C(C)(C)C(=O)C4(C)C)c1C` (stereo not drawn) [B, 5,7-dihydro-2-[[(4-methoxy-3,5-dimethyl-2-pyridyl)-methyl]sulfinyl]-5,5,7,7-tetramethylindeno[5,6-d]imidazol-6(lH)-one] the same measures were 2.3 mg/kg, 5.44 mg/kg and more than 5000 mg/kg.
On to `COc1ccnc(CSc2nc3cc4c(cc3[nH]2)C(C)(C)C(=O)C4(C)C)c1C` [C, 5,7-dihydro-2-[[(4-methoxy-3-methyl-2-pyridyl)methyl]thio]-5,5,7,7-tetramethylindeno[5,6-d]imidazol-6(lH)-one], for which the ED50 in data set [1] turned out to be 1.2 mg/kg; in data set [2], 2.56 mg/kg. The LD50 in data set [3] is more than 5000 mg/kg.
In the case of `COc1ccnc(C[S+]([O-])c2nc3cc4c(cc3[nH]2)C(C)(C)C(=O)C4(C)C)c1C` (stereo not drawn) [D, 5,7-dihydro-2-[[(4-methoxy-3-methyl-2-pyridyl)-methyl]sulfinyl]-5,5,7,7-tetramethylindeno[5,6-d]imidazol-6(lH)-one], the ED50 in data set [1] was 1.3 mg/kg; in data set [2], 3.59 mg/kg. Also, the LD50 in data set [3] is more than 5000 mg/kg.
In the case of `COc1ccnc(C[S+]([O-])c2nc3cc4c(cc3[nH]2)OCO4)c1C` (stereo not drawn) [E, 6-[[(4-methoxy-3-methyl-2-pyridyl)methyl]sulfinyl]-5H-1,3-dioxolo[4,5-f]benzimidazole], the results for the ED50 in data set [1] and in data set [2] were 4 mg/kg and 1.79 mg/kg, respectively. Besides, in data set [3], the LD50 was more than 5000 mg/kg.
Regarding `COc1c(C)cnc(C[S+]([O-])c2nc3cc4c(cc3[nH]2)OCO4)c1C` (stereo not drawn) [F, 6-[[(4-methoxy-3,5-dimethyl-2-pyridyl)methyl]sulfinyl]-5H-1,3-dioxolo[4,5-f]benzimidazole], the ED50 in data set [1] is 6 mg/kg; in data set [2], 1.4 mg/kg. Also, the LD50 in data set [3] is more than 5000 mg/kg.
Regarding `CON=C1C(C)(C)c2cc3nc([S+]([O-])Cc4nccc(OC)c4C)[nH]c3cc2C1(C)C` (stereo not drawn) [H, 5,7-dihydro-2-[[(4-methoxy-3-methyl-2-pyridyl)methyl]sulfinyl]-5,5,7,7-tetramethylindeno[5,6-d]imidazol-6(lH)-one 0-methyl oxime], the values for the ED50 in data set [1] and in data set [2] were 5 mg/kg and 7.78 mg/kg, respectively. Further, the LD50 in data set [3] is 1250 to 2500 mg/kg.
For `CON=C1C(C)(C)c2cc3nc(SCc4nccc(OC)c4C)[nH]c3cc2C1(C)C` [I, 5,7-dihydro-2-[[(4-methoxy-3-methyl-2-pyridyl)methyl]thio]-5,5,7,7-tetramethylindeno[5,6-d]imidazol-6(lH)-one 0-methyl oxime] the same measures were 4 mg/kg, 2.25 mg/kg and 1250 to 2500 mg/kg.
